# Test results taken from patent US7030137B2, “Substituted thiophenes with antibacterial activity” (Replidyne, Inc., priority 2003, dated 2006).
# Structures can show the parent of a compound that is named as a salt.
# Legend:
# S. aureus = experiment: MIC S. aureus (standard MIC assay modified by inclusion of cyclodextrin); format: cell-based; conditions: Staphylococcus aureus
# Experimental: (§1) Compounds of the present invention were assayed for antibacterial activity against a range of pathogenic organisms (strains of S aureus, S pneumoniae, E faecalis, H influenzae and M catarrhalis) in a standard MIC assay modified by the inclusion of cyclodextrin, to assist with solubility.
# H. influenzae = experiment: MIC H. influenzae (standard MIC assay modified by inclusion of cyclodextrin); format: cell-based; conditions: Haemophilus influenzae
# Experimental: as §1
# S. pneumo = experiment: MIC S. pneumo (standard MIC assay modified by inclusion of cyclodextrin); format: cell-based; conditions: Streptococcus pneumoniae
# Experimental: as §1
# [1] = tested on: M catarrhalis and H. influenzae; experiment: MIC against some strains of gram negative pathogens; format: cell-based; conditions: Haemophilus influenzae
# Experimental: as §1
# [2] = tested on: S. aureus, S. pneumoniae, and E. faecalis; experiment: MIC against some strains of gram positive pathogens; format: cell-based
# Experimental: as §1
# [3] = target: T1, recombinant H. influenzae MRS (Haemophilus influenzae, UniProt P43828); experiment: Enzyme Inhibition (H. influenzae MRS) aminoacylation assay; format: biochemical; conditions: read-out: IC50 against H. influenzae MRS
# T1 construct: made in house
# T1 sequence (P43828 whole entry): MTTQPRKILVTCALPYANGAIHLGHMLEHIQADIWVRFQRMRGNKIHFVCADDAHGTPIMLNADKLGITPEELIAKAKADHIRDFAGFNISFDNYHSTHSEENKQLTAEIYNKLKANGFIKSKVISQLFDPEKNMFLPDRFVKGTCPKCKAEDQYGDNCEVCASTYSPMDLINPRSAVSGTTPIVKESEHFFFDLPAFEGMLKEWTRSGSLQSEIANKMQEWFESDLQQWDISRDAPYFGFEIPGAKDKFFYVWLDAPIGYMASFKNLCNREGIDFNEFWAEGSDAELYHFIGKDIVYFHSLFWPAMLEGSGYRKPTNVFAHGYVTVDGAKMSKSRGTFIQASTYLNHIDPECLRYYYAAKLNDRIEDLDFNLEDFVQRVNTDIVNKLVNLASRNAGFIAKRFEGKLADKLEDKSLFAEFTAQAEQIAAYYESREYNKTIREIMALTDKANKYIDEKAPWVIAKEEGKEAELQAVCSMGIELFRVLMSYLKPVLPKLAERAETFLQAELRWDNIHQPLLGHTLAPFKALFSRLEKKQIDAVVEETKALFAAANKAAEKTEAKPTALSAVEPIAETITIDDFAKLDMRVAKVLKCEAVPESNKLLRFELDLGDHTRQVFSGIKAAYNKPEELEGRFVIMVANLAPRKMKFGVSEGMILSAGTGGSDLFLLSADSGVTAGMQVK
# Experimental: 2. Enzyme Inhibition (H. influenzae MRS)—aminoacylation assay
# Compounds of the present invention may be assayed for their ability to inhibit the enzyme methionyl tRNA synthetase (MRS), using recombinant H. influenzae MRS(R. D. Fleischmann et al., Science, 269, 496–512, 1995), as follows:
# The reaction is started by adding 20 μl appropriately diluted pure enzyme (pre-incubated with inhibitor) to 25 μl reaction mix for 10 min at room temperature. The reaction is terminated by the addition of 150 μl 167 mM sodium citrate, pH 2.15 containing phosphodiesterase (PDE) SPA beads (0.833 mg/ml). The binding of the radiolabelled product to the bead brings the isotope into close enough proximity to allow radiation from the tritium to excite the scintillant within the bead. Any unbound radiolabel is not close enough to the scintillant to allow this energy transfer, so no signal is generated. Following termination of the reaction, plates are spun at 2500 rpm for 5 min in a Mistral 3000E plate centrifuge (or alternatively allowed to stand for 1 hour). The assay is conducted in 96-well Optiplates (Packard). Plates are counted on a TopCount. (Packard 96 well counter).
# Mixed E. coli MRE 600 tRNA and ATP were purchased from Boehringer-Mannheim, L-[methyl-^3H]methionine and phosphodiesterase scintillation proximity (SPA) beads from Amersham Pharmacia Biotech and other reagents from Sigma.
# [4] = prior art thiophenes of U.S. Pat. No. 6,320,051
MIC (S. aureus; [4]),MIC (H. influenzae; [4]),MIC (S. pneumo; [4]),MIC (S. aureus),MIC (H. influenzae),MIC [2],MIC (S. pneumo),IC50 [3],SMILES,MIC [1]
2 µg/mL,> 64 µg/mL,2 µg/mL,–,–,–,–,–,O=c1cc(NC[C@H]2CCC[C@@H]2NCc2cc(Br)c(Br)s2)[nH]c2ccccc12 [Example 74],–
–,–,–,1 µg/mL,8 µg/mL,1 to 2 µg/mL,4 µg/mL,–,"Cc1c(CNCCCNc2nc3ccccc3[nH]2)sc(C(F)F)c1Br [Example 23, N-(4-bromo-5-difluoromethyl-3-methylthiophen-2-ylmethyl)-N′-(1H-benzimidazole)propane-1,3-diamine]",0.13 to 8 µg/mL
–,–,–,0.06 µg/mL,64 µg/mL,0.06 to 0.5 µg/mL,0.25 µg/mL,≤ 200 nM,"C=C(F)c1sc(CNCCCNc2nc3ncccc3[nH]2)c(C)c1Br [Example 17, N-(4-bromo-5-(1-fluorovinyl)-3-methylthiophen-2-ylmethyl)-N′-(1H-imidazo[4,5-b]pyridin-2-yl)-propane-1,3-diamine]",–
–,–,–,0.5 µg/mL,8 µg/mL,0.06 to 0.5 µg/mL,1 µg/mL,–,"Cc1c(CNCCCNc2nc3ccccc3[nH]2)sc(C(F)(F)F)c1Br [Example 24, N-(4-bromo-3-methyl-5-trifluoromethylthiophen-2-ylmethyl)-N′-(1H-benzimidazole)propane-1,3-diamine]",0.13 to 8 µg/mL
8 µg/mL,> 64 µg/mL,1 µg/mL,–,–,–,–,–,O=c1cc(NCCCNCc2cc(Br)c(Br)s2)[nH]c2ccccc12 [Example 37],–
–,–,–,0.06 µg/mL,64 µg/mL,0.06 to 0.5 µg/mL,0.06 µg/mL,–,"CC#Cc1c(CNCCCNc2cc(=O)c3ccccc3[nH]2)sc(CC)c1Br [Example 9, N-(4-bromo-3-(1-propynyl)-5-ethylthiophen-2-ylmethyl)-N′-(1H-quinolin-4-one)propane-1,3-diamine]",–
–,–,–,0.06 µg/mL,32 µg/mL,0.06 to 0.5 µg/mL,0.13 µg/mL,–,"Cc1c(CNCCCNc2cc(=O)c3ccccc3[nH]2)sc(C2CC2)c1Br [Example 6, N-(4-bromo-5-cyclopropyl-3-methylthiophen-2-ylmethyl)-N′-(1H-quinolin-4-one)propane-1,3-diamine]",–
–,–,–,0.25 µg/mL,32 µg/mL,0.06 to 0.5 µg/mL,0.06 µg/mL,–,"Cc1c(CNCCCNc2cc(=O)c3ccccc3[nH]2)sc(Br)c1Br [Example 1, N-(4,5-Dibromo-3-methylthiophen-2-ylmethyl)-N′-(1H-quinolin-4-one)propane-1,3-diamine]",–
–,–,–,0.06 µg/mL,16 µg/mL,0.06 to 0.5 µg/mL,0.06 µg/mL,–,"C=Cc1sc(CNCCCNc2cc(=O)c3ccccc3[nH]2)c(C)c1Br [Example 3, N-(4-bromo-3-methyl-5-vinylthiophen-2-ylmethyl)-N′-(1H-quinolin-4-one)propane-1,3-diamine]",–
2 µg/mL,> 64 µg/mL,1 µg/mL,–,–,–,–,–,O=c1cc(NCCCNCc2sc(Br)c(Br)c2Br)[nH]c2ccccc12 [Example 65],–
–,–,–,0.06 µg/mL,8 µg/mL,0.06 to 0.5 µg/mL,0.25 µg/mL,–,"CC=Cc1c(CNCCCNc2cc(=O)c3ccccc3[nH]2)sc(CC)c1Br [Example 10, N-(4-bromo-3-(1-propenyl)-5-ethylthiophen-2-ylmethyl)-N′-(1H-quinolin-4-one)propane-1,3-diamine]",0.13 to 8 µg/mL
–,–,–,0.25 µg/mL,16 µg/mL,0.06 to 0.5 µg/mL,0.5 µg/mL,–,"Cc1c(CNCCCNc2nc3cscc3[nH]2)sc(C(F)(F)F)c1Br [Example 20, N-(4-Bromo-3-methyl-5-trifluoromethylthiophen-2-ylmethyl)-N′-(1H-thieno[3,4-d]imidazol-2-yl)propane-1,3-diamine]",–
–,–,–,0.13 µg/mL,> 64 µg/mL,0.06 to 0.5 µg/mL,0.06 µg/mL,–,"C#Cc1sc(CNCCCNc2cc(=O)c3ccccc3[nH]2)c(C)c1Br [Example 2, N-(4-bromo-5-ethynyl-3-methylthiophen-2-ylmethyl)-N′-(1H-quinolin-4-one)propane-1,3-diamine]",–
–,–,–,0.5 µg/mL,32 µg/mL,0.06 to 0.5 µg/mL,2 µg/mL,≤ 200 nM,"Cc1c(CNCCCNc2nc(=O)c3sccc3[nH]2)sc(Br)c1Br [Example 25, N-(4,5-Dibromo-3-methylthiophen-2-ylmethyl)-N′-(1H-thieno [3,2-d]pyrimidin-4-one)propane-1,3-diamine]",–

# The remaining lines, values behind:
SMILES,MIC (S. aureus; [4]),MIC (H. influenzae; [4]),MIC (S. pneumo; [4]),MIC (S. aureus),MIC (H. influenzae),MIC [2],MIC (S. pneumo),IC50 [3],MIC [1]
"Cc1c(CNCCCNc2nc3nnccc3[nH]2)sc(C2CC2)c1Br [Example 11, N-(4-Bromo-5-cyclopropyl-3-methylthiophen-2-ylmethyl)-N′-(5H-imidazo[4,5-c]pyridazin-6-yl)propane-1,3-diamine dihydrochloride]",–,–,–,2 µg/mL,2 µg/mL,1 to 2 µg/mL,8 µg/mL,–,0.13 to 8 µg/mL
"C#Cc1sc(CNCCCNc2nc3nnccc3[nH]2)c(C)c1Br [Example 15, N-(4-bromo-5-ethynyl-3-methylthiophen-2-ylmethyl)-N′-(5H-imidazo[4,5-c]pyridazin-6-yl)propane-1,3-diamine dihydrochloride]",–,–,–,1 µg/mL,0.5 µg/mL,1 to 2 µg/mL,0.5 µg/mL,–,0.13 to 8 µg/mL
"Cc1c(CNCCCNc2nc3cscc3[nH]2)sc(C(F)F)c1Br [Example 19, N-(4-Bromo-5-difluoromethyl-3-methylthiophen-2-ylmethyl)-N′-(1H-thieno[3,4-d]imidazol-2-yl)propane-1,3-diamine]",–,–,–,0.13 µg/mL,16 µg/mL,0.06 to 0.5 µg/mL,0.5 µg/mL,–,–
"C=C(F)c1sc(CNCCCNc2nc3nnccc3[nH]2)c(C)c1Br [Example 14, N-(4-bromo-5-(1-fluorovinyl)-3-methylthiophen-2-ylmethyl)-N′-(5H-imidazo[4,5-c]pyridazin-6-yl)propane-1,3-diamine dihydrochloride]",–,–,–,0.25 µg/mL,0.13 µg/mL,0.06 to 0.5 µg/mL,0.25 µg/mL,–,0.13 to 8 µg/mL
"Cc1c(CNCCCNc2cc(=O)c3ccccc3[nH]2)sc(C(F)F)c1Br [Example 7, N-(4-bromo-5-difluoromethyl-3-methylthiophen-2-ylmethyl)-N′-(1H-quinolin-4-one)propane-1,3-diamine]",–,–,–,1 µg/mL,64 µg/mL,1 to 2 µg/mL,1 µg/mL,–,–
"Cc1c(CNCCCNc2nc3ncccc3[nH]2)sc(C(F)F)c1Br [Example 16, N-(4-bromo-5-difluoromethyl-3-methylthiophen-2-ylmethyl)-N′-(1H-imidazo[4,5-b]pyridin-2-yl)-propane-1,3-diamine]",–,–,–,0.5 µg/mL,64 µg/mL,0.06 to 0.5 µg/mL,4 µg/mL,–,–
"CCc1sc(CNCCCNc2cc(=O)c3ccccc3[nH]2)c(C)c1Br [Example 5, N-(4-bromo-5-ethyl-3-methylthiophen-2-ylmethyl)-N′-(1H-quinolin-4-one)propane-1,3-diamine]",–,–,–,0.06 µg/mL,64 µg/mL,0.06 to 0.5 µg/mL,0.25 µg/mL,–,–
"C=Cc1sc(CNCCCNc2nc3nnccc3[nH]2)c(C)c1Br [Example 13, N-(4-bromo-3-methyl-5-vinylthiophen-2-ylmethyl)-N′-(5H-imidazo[4,5-c]pyridazin-6-yl)propane-1,3-diamine dihydrochloride]",–,–,–,0.5 µg/mL,2 µg/mL,0.06 to 0.5 µg/mL,2 µg/mL,–,0.13 to 8 µg/mL
"Cc1c(CNCCCNc2cc(=O)c3ccccc3[nH]2)sc(C(F)(F)F)c1Br [Example 8, N-(4-bromo-3-methyl-5-trifluoromethylthiophen-2-ylmethyl)-N′-(1H-quinolin-4-one)propane-1,3-diamine]",–,–,–,0.13 µg/mL,64 µg/mL,0.06 to 0.5 µg/mL,0.13 µg/mL,–,–
"Cc1c(CNCCCNc2nc3nnccc3[nH]2)sc(C(F)(F)F)c1Br [Example 12, N-(4-bromo-3-methyl-5-trifluoromethylthiophen-2-ylmethyl)-N′-(5H-imidazo[4,5-c]pyridazin-6-yl)propane-1,3-diamine dihydrochloride]",–,–,–,0.5 µg/mL,0.25 µg/mL,0.06 to 0.5 µg/mL,2 µg/mL,–,0.13 to 8 µg/mL
"C=C(F)c1sc(CNCCCNc2cc(=O)c3ccccc3[nH]2)c(C)c1Br [Example 4, N-(4-bromo-5-(1-fluorovinyl)-3-methylthiophen-2-ylmethyl)-N′-(1H-quinolin-4-one)propane-1,3-diamine]",–,–,–,0.06 µg/mL,4 µg/mL,0.06 to 0.5 µg/mL,0.06 µg/mL,–,0.13 to 8 µg/mL
"C=C(F)c1sc(CNCCCNc2nc3ccccc3[nH]2)c(C)c1Br [Example 22, N-(4-bromo-5-(1-fluorovinyl)-3-methylthiophen-2-ylmethyl)-N′-(1H-benzimidazole)propane-1,3-diamine]",–,–,–,0.13 µg/mL,16 µg/mL,0.06 to 0.5 µg/mL,0.5 µg/mL,≤ 200 nM,–
